Drawing on ChEMBL document CHEMBL5506053, “Explorations of Agonist Selectivity for the α9* nAChR with Novel Substituted Carbamoyl/Amido/Heteroaryl Dialkylpiperazinium Salts and Their Therapeutic Implications in Pain and Inflammation” (J Med Chem, 2024), this text covers fold change (FC) and Activity for nine compounds.

Data set [1] deals with T1, Neuronal acetylcholine receptor subunit alpha-7 (Homo sapiens, UniProt P36544). Description: Partial agonist activity at human alpha7 nAChR expressed as xenopus laevis oocytes assessed as increase in receptor desensitization by measuring fold change in maximum response (Imax) measured after 120 secs by two-electrode voltage-clamp electrophysiology method relative to acetylcholine. It counts as cell-based. As to conditions: Oocyte, filed as partial agonist, time 120.0 sec. A general note: Two-electrode voltage clamp is typically applied to oocytes expressing channels or transporters.
T1 sequence (P36544 whole entry): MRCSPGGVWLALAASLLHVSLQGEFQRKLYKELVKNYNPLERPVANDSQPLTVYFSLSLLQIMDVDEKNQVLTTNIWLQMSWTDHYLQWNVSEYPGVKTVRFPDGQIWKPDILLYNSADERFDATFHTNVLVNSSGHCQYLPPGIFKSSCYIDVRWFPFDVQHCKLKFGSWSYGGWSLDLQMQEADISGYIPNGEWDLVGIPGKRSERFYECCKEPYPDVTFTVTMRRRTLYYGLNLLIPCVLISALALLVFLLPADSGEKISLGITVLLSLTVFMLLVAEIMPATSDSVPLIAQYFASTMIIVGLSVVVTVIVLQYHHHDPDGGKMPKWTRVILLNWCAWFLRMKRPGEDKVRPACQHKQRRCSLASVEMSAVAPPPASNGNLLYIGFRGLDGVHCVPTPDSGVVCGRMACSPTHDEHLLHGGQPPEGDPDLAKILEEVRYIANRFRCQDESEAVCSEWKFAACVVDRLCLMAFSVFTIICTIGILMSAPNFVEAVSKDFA

Data set [2] has as its target T2, Neuronal acetylcholine receptor; alpha4/beta2 (Homo sapiens) (UniProt P17787+P43681). In words: Agonist activity at human alpha4beta2 nAChR expressed in xenopus laevis oocytes at 30 uM measured after 120 secs by two-electrode voltage-clamp electrophysiology method relative to control. As to conditions: Oocyte, time 120.0 sec. The format is cell-based.
In data set [3] the target is T1, Neuronal acetylcholine receptor subunit alpha-7. In words: Agonist activity at human alpha7 nAChR expressed as xenopus laevis oocytes assessed as increase in receptor desensitization by measuring fold change in peak current response at 30 uM incubated for 120 secs presence of PNU-120596 by two-electrode voltage-clamp electrophysiology method relative to acetylcholine. The format is cell-based. The settings on record: Oocyte, filed as agonist, time 120.0 sec.

In data set [4] the target is T3, Neuronal acetylcholine receptor; alpha3/beta4 (Homo sapiens) (UniProt P30926+P32297). In words: Agonist activity at human alpha3beta4 nAChR expressed in xenopus laevis oocytes at 100 uM measured after 120 secs by two-electrode voltage-clamp electrophysiology method relative to control. It counts as cell-based. The settings on record: Oocyte, time 120.0 sec.
The target of data set [5] is T4, Neuronal acetylcholine receptor; alpha9/alpha10 (Homo sapiens) (UniProt Q9UGM1+Q9GZZ6). Description: Agonist activity at human alpha9alpha10 nAChR expressed as xenopus laevis oocytes assessed as increase in receptor desensitization by measuring fold change in maximum response (Imax) measured after 120 secs by two-electrode voltage-clamp electrophysiology method relative to acetylcholine. The format is cell-based. The settings on record: Oocyte, filed as agonist, time 120.0 sec.

The target of data set [6] is T2, Neuronal acetylcholine receptor; alpha4/beta2 (Homo sapiens). Description: Inhibition of acetylcholine induced response in human alpha4beta2 nAChR expressed in xenopus laevis oocytes assessed as fold change at 30 uM preincubated with 3 uM acetylcholine followed by compound administration for 12 sec and measured 181 sec post washout by two-electrode voltage-clamp electrophysiology method relative to acetylcholine alone. As to conditions: Oocyte. The format is cell-based.

For data set [7], the system named is Oocyte. In words: Inhibition of acetylcholine induced response in mouse muscle alpha1beta1epsilondelta nAChR expressed in xenopus laevis oocytes assessed as fold change at 30 uM preincubated with 3 uM acetylcholine followed by compound administration for 12 sec and measured 181 sec post washout by two-electrode voltage-clamp electrophysiology method relative to acetylcholine alone. The format is cell-based.

For data set [8], the target named is T3, Neuronal acetylcholine receptor; alpha3/beta4 (Homo sapiens). In words: Inhibition of acetylcholine induced response in human alpha3beta4 nAChR expressed in xenopus laevis oocytes assessed as fold change at 100 uM preincubated with 3 uM acetylcholine followed by compound administration for 12 sec and measured 181 sec post washout by two-electrode voltage-clamp electrophysiology method relative to acetylcholine alone. The format is cell-based. The settings on record: Oocyte.

Data set [9] relates to Oocyte. Description: Agonist activity at mouse muscle alpha1beta1epsilondelta nAChR expressed in xenopus laevis oocytes at 30 uM measured after 120 secs by two-electrode voltage-clamp electrophysiology method relative to control. It counts as cell-based. The settings on record: time 120.0 sec.
For data set [10], the target named is T5, Neuronal acetylcholine receptor subunit alpha-9 (Homo sapiens, UniProt Q9UGM1). In words: Agonist activity at human alpha9 nAChR expressed as xenopus laevis oocytes assessed as increase in receptor desensitization by measuring fold change in maximum response (Imax) measured after 120 secs by two-electrode voltage-clamp electrophysiology method relative to acetylcholine. As to conditions: Oocyte, filed as agonist, time 120.0 sec. The format is cell-based.
T5 sequence (Q9UGM1 whole entry): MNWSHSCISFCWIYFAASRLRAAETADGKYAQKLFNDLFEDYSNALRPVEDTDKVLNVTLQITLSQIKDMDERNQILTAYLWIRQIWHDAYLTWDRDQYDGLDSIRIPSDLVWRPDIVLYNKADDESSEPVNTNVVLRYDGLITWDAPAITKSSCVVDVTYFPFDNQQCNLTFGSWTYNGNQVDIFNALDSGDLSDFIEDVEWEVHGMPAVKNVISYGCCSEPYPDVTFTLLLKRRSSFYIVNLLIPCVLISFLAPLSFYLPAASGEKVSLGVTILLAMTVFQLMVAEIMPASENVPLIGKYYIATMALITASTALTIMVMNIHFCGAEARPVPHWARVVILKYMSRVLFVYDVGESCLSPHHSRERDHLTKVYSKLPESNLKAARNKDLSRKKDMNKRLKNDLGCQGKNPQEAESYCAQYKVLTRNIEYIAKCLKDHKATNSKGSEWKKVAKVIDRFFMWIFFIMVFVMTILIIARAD

Data set [11] deals with T4, Neuronal acetylcholine receptor; alpha9/alpha10 (Homo sapiens). Description: Partial agonist activity at human alpha9alpha10 nAChR expressed as xenopus laevis oocytes assessed as increase in receptor desensitization by measuring fold change in maximum response (Imax) measured after 120 secs by two-electrode voltage-clamp electrophysiology method relative to acetylcholine. It counts as cell-based. As to conditions: Oocyte, filed as partial agonist, time 120.0 sec.

Data set [12] addresses T1, Neuronal acetylcholine receptor subunit alpha-7. In words: Agonist activity at human alpha7 nAChR expressed as xenopus laevis oocytes assessed as increase in receptor desensitization by measuring fold change in maximum response (Imax) measured after 120 secs by two-electrode voltage-clamp electrophysiology method relative to acetylcholine. As to conditions: Oocyte, filed as agonist, time 120.0 sec. It counts as cell-based.

Data set [13] deals with T5, Neuronal acetylcholine receptor subunit alpha-9. Description: Partial agonist activity at human alpha9 nAChR expressed as xenopus laevis oocytes assessed as increase in receptor desensitization by measuring fold change in maximum response (Imax) measured after 120 secs by two-electrode voltage-clamp electrophysiology method relative to acetylcholine. It counts as cell-based. As to conditions: Oocyte, filed as partial agonist, time 120.0 sec.

For data set [14], the system named is THP-1. In words: Induction of IL-1beta release in LPS primed monocytic human THP-1 cells at 10 uM primed with LPS for 5 hrs followed by compound addition and further incubated for 40 mins by ELISA. The format is functional, cell-based. Background: ELISA stands for enzyme-linked immunosorbent assay.
The subject of data set [15] is THP-1. In words: Cytotoxicity against monocytic human THP-1 cells assessed as effect on lactate dehydrogenase activity in supernatant. The format is toxicity, cell-based.

Active and inactive are the calls of the source. The rule behind the calls is not given here. Some results are limits rather than exact numbers.

As for `CC[N+]1(CC)CCN(c2ccc(C(=O)Nc3cccc(C)c3)cc2)CC1`, the fold change (FC) was 0.6 in [1]; 0.17 in data set [3]; 1.12 in data set [5]; 0.807 in data set [6]; 0.555 in data set [7]; 1.04 in data set [8]. In addition, the fold change (FC) in data set [10] was 1.25. The Activity in data set [2], in [4] and in data set [9] was under 1% throughout.
With `CCCNC(=O)c1ccc(N2CC[N+](CC)(CC)CC2)cc1`, the Activity in data set [2], in [4] and in [9] was under 1% in each case. The fold change (FC) in [3] came out at 0.19; in [11], 0.79; in data set [6] it was 0.946; in data set [7] it was 0.709; in [8], 0.65; in data set [12], 0.38. Besides, the fold change (FC) in data set [10] came to 1.13.
For the compound `CC[N+]1(CC)CCN(c2ccc(-n3cccn3)cc2)CC1`, the fold change (FC) in data set [1] is 0.088; in data set [3], 0.17; in [11], 0.59; in data set [6] it was 0.913; in data set [7], 0.59; in [8] it was 0.736. In addition, in [10], the fold change (FC) is 1.01. The Activity in data set [2], in [4] and in data set [9] was under 1% each time.
For `CC[N+]1(CC)CCN(c2ccc(C(=O)N3CCCC3)cc2)CC1`, the Activity in [2], in [4] and in data set [9] was under 1% each time. In addition, the fold change (FC) in data set [13] is 0.69; in data set [3], 0.01; in data set [5], 0.56; in data set [6], 0.919; in data set [7] it was 0.541; in data set [8], 0.849. In addition, in data set [12], the fold change (FC) amounted to 0.06.
Regarding `CC[N+]1(CC)CCN(c2ccc(-n3cccc3)cc2)CC1`, the Activity in data set [2], in [4] and in [9] was under 1% throughout. Further, the fold change (FC) stood at 0.27 in data set [13]; 0.08 in [3]; 0.17 in data set [5]; 0.709 in [6]; 0.691 in data set [7]; 0.387 in [8]. The fold change (FC) in data set [12] was determined as 0.041.
As for `CC[N+]1(C)CCN(c2ccc(NC(C)=O)cc2)CC1`, the Activity in data set [2], in data set [4] and in data set [9] was under 1% in each case. Besides, the fold change (FC) in [3] came to 0.15; in data set [11], 3.3; in [6] it was 1.19; in data set [7], 0.409; in data set [8], 0.798; in data set [10] it was 0.75.
With `CC(=O)OCC[N+](C)(C)C` [ACETYLCHOLINE], the outcome in [14] was inactive. Also, the Activity result in data set [15] is on record as “Non-Toxic”.
As for `CC[N+]1(CC)CCN(c2ccc(-c3ncco3)cc2)CC1`, the fold change (FC) is 0.12 in data set [1]; 0.05 in data set [3]; 0.83 in data set [5]; 0.823 in [6]; 0.353 in data set [7]; 0.507 in data set [8]. In addition, the fold change (FC) in data set [10] turned out to be 1.29. In addition, the Activity in data set [2], in [4] and in data set [9] was under 1% in each case.
Turning to `CC[N+]1(CC)CCN(c2ccc(C(=O)Nc3ccccn3)cc2)CC1`, the Activity in data set [2], in [4] and in [9] was under 1% each time. Moreover, the fold change (FC) in data set [3] came out at 0.12; in data set [5], 0.94; in [6], 0.697; in [7], 0.506; in data set [8], 0.789; in data set [12] it was 0.46. In addition, in data set [10], the fold change (FC) stood at 1.18.
